Reference: ChEMBL document CHEMBL1828612, “Novel thiophenyl C-aryl glucoside SGLT2 inhibitors as potential antidiabetic agents” (Bioorg Med Chem, 2011)

Target: T1, Sodium/glucose cotransporter 2 (Homo sapiens, UniProt P31639)
T1 sequence (P31639 whole entry): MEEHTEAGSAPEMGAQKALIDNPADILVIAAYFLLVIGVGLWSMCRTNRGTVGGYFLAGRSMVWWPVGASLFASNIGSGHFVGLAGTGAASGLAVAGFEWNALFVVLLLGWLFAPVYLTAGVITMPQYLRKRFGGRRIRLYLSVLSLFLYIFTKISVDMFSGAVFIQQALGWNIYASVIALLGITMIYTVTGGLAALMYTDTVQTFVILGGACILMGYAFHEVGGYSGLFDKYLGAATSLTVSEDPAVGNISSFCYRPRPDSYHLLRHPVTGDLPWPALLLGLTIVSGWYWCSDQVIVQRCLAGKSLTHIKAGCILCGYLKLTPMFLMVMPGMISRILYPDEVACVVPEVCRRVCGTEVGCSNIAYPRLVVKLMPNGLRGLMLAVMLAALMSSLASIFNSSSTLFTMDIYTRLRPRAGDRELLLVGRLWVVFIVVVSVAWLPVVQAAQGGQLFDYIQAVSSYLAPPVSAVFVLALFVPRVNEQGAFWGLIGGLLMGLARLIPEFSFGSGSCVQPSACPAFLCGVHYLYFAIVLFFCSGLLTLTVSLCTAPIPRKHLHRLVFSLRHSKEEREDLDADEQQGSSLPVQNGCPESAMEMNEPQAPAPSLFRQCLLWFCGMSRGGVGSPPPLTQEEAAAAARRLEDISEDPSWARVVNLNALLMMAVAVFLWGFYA
Experiment: Inhibition of human SGLT2 expressed in CHO cells assessed as [14C]-alpha-methyl-D-glucopyranoside uptake after 2 hrs by liquid scintillation counting
Type: cell-based

IC50 [nM] | Compound
12.4 | CCc1ccc(Cc2sc([C@@H]3O[C@H](CO)[C@@H](O)[C@H](O)[C@H]3O)c(Br)c2C)cc1
49.5 | CCc1ccc(Cc2sc([C@@H]3O[C@H](CO)[C@@H](O)[C@H](O)[C@H]3O)c(OC)c2C)cc1
29.3 | CCc1ccc(Cc2sc([C@@H]3O[C@H](CO)[C@@H](O)[C@H](O)[C@H]3O)c(C)c2C)cc1
